For 16 compounds, Ki and IC50 results are on record in ChEMBL document CHEMBL1127968, “Examination of peptidic ,-diamino-,-difluoroketones as inhibitors of human leukocyte elastase” (Bioorg Med Chem Lett, 1994).

The Ki is a measure of affinity in units of concentration, obtained from inhibition or displacement. The IC50 is the concentration that gives 50% inhibition. The low end stands for greater potency, the high end for weaker potency.

The target of this assay is T1, Neutrophil elastase (Homo sapiens, UniProt P08246).
T1 sequence (P08246 whole entry): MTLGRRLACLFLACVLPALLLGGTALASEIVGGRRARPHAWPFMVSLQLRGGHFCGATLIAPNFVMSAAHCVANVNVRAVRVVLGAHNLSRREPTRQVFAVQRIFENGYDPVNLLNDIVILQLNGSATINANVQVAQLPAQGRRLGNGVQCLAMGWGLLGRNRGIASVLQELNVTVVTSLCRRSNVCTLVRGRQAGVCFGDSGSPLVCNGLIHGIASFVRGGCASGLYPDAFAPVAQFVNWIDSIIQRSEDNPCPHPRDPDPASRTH
Nature of the assay: In vitro inhibitory activity against human leukocyte elastase was determined.
In turn, `COc1ccc(C(=O)N[C@H](C(=O)N2CCC[C@H]2C(=O)N[C@H](C(=O)C(F)(F)CNC(=O)OC(C)(C)C)C(C)C)C(C)C)cc1` gave a Ki of 3.4 nM. On the same count and under the same terms, next, `CNC(=O)C(F)(F)C(=O)[C@@H](NC(=O)[C@@H]1CCCN1C(=O)[C@@H](NC(=O)Oc1ccccc1)C(C)C)C(C)C`: 0.85 nM. Same read-out and setting: the result for `COc1ccc(C(=O)N[C@H](C(=O)N2CCC[C@H]2C(=O)N[C@H](C(=O)C(F)(F)CNCc2ccccc2)C(C)C)C(C)C)cc1` reads 0.35 nM. For the compound `CC(C)[C@H](NC(=O)Oc1ccccc1)C(=O)N1CCC[C@H]1C(=O)N[C@H](C(=O)C(F)(F)CNCc1ccccc1)C(C)C`, the Ki was determined as 4.1 nM. Consider `CC(C)[C@H](NC(=O)OCc1ccccc1)C(=O)N1CCC[C@H]1C(=O)N[C@H](C(=O)C(F)(F)C(N)=O)C(C)C`, for which the Ki stood at 0.38 nM.

Compound `CC(C)[C@H](NC(=O)Oc1ccccc1)C(=O)N1CCC[C@H]1C(=O)N[C@H](C(=O)C(F)(F)CN)C(C)C` returned a Ki of 0.81 nM.

In turn, `CNC(=O)C(F)(F)C(=O)[C@@H](NC(=O)[C@@H]1CCCN1C(=O)[C@@H](NC(=O)c1ccc(OC)cc1)C(C)C)C(C)C` came in with a Ki of 3.4 nM. On the same count and under the same terms, next, `COc1ccc(C(=O)N[C@H](C(=O)N2CCC[C@H]2C(=O)N[C@H](C(=O)C(F)(F)CN)C(C)C)C(C)C)cc1`: 15 nM. The same measure, in the same setting: the result for `CC(C)[C@H](NC(=O)Oc1ccccc1)C(=O)N1CCC[C@H]1C(=O)N[C@H](C(=O)C(F)(F)F)C(C)C` reads 2.3 nM; that for `CNC(=O)C(F)(F)C(=O)[C@@H](NC(=O)[C@@H]1CCCN1C(=O)[C@@H](NC(=O)OCc1ccccc1)C(C)C)C(C)C`, 3 nM. The same measure, in the same setting: the result for `CC(C)[C@H](NC(=O)OCc1ccccc1)C(=O)N1CCC[C@H]1C(=O)N[C@H](C(=O)C(F)(F)CN)C(C)C` reads 130 nM. With `CC(C)CC(=O)NCC(F)(F)C(=O)C(CC1CCCCC1)NC(=O)[C@@H](NC(=O)[C@H](Cc1ccccc1)NC(=O)OC(C)(C)C)C(C)C` (stereo partly specified), the IC50 came to 3.5 nM. In other words, the single-digit nanomolar range. Turning to `COc1ccc(C(=O)N[C@H](C(=O)N2CCC[C@H]2C(=O)N[C@H](C(=O)C(F)(F)C(N)=O)C(C)C)C(C)C)cc1`, affinity was put at a Ki of 0.65 nM. Same read-out and setting: next, `CC(C)[C@H](NC(=O)OCc1ccccc1)C(=O)N1CCC[C@H]1C(=O)N[C@H](C(=O)C(F)(F)CNCc1ccccc1)C(C)C`: 1.6 nM; `CC(C)[C@H](NC(=O)OCc1ccccc1)C(=O)N1CCC[C@H]1C(=O)N[C@H](C(=O)C(F)(F)CNC(=O)OC(C)(C)C)C(C)C`: 1.1 nM.

For the compound `CC(C)[C@H](NC(=O)Oc1ccccc1)C(=O)N1CCC[C@H]1C(=O)N[C@H](C(=O)C(F)(F)CNC(=O)OC(C)(C)C)C(C)C`, the affinity, expressed as Ki, was 0.39 nM.
